Laboratory results from patent US4264572A, “X-ray contrast media” (Schering Aktiengesellschaft, priority 1978, dated 1981).

Legend:
[1] = coefficient of distribution in 1-butanol/tris-HCl buffer; format: physicochemical; conditions: pH 7.6, 1-butanol/tris-HCl buffer; meglumine salts
Excerpt: It is furthermore seen from this table that the interaction of the new compounds with proteins is much less than that of the known comparison substances.

[2] = tested on: rat; assay: neural tolerance, ED50 pericerebral in rat (24 hours); conditions: meglumine salts
[3] = tested on: proteins
[4] = tested on: rat; assay: general tolerance, LD50 i.v. in rat (7 days); format: in vivo; conditions: meglumine salts

SMILES	Coefficient of Distribution [1]	Tolerance ED50 pericerebral (24 hours) [2]	Protein Bond [3]	Tolerance LD50 i.v. (7 days) [4]
CNC(=O)c1c(I)c(C(=O)NCC(=O)Nc2c(I)c(C(=O)O)c(I)c(C(=O)NCCO)c2I)c(I)c(N(C)C(C)=O)c1I [B, 5-(3-N-methyl-acetamido-2,4,6-triiodine-5-methylcarbamoyl-benzamido-acetamido)-N-(2-hydroxyethyl)-2,4,6-triiodine-isophthalamic acid]	0.033	~ 40 mg I/kg of rat	6.8	~ 7,500 mg I/kg of rat
CNC(=O)c1c(I)c(C(=O)NCC(=O)Nc2c(I)c(C(=O)O)c(I)c(C(=O)NCCO)c2I)c(I)c(N(C)C(=O)COC)c1I [A, 5-(3-N-methylmethoxyacetamido-5-methylcarbamoyl-2,4,6-triiodine-benzamidoacetamido)-N-(2-hydroxyethyl)-2,4,6-triiodine-isophthalamic acid]	< 0.001	~ 100 mg I/kg of rat	2.5	~ 10,000 mg I/kg of rat
CNC(=O)c1c(I)c(NC(C)=O)c(I)c(C(=O)O)c1I [C, 5-acetamido-2,4,6-triiodine-N-methyl-isophthalamic acid]	0.017	60 mg I/kg of rat	7.6	~ 7,500 mg I/kg of rat
